These results are taken from patent publication US20200022964A1, “COMPOSITIONS AND METHODS FOR TREATMENT OF INFLAMMATORY AUTOIMMUNE DISEASES” (New York University, priority 2018, published 2020).

The subject of one experiment is TNF-α/NF-κB pathway. As to the kind of experiment: TNF-tg:NF-κB-Luc double mutant mice, luciferase imaging by IVIS. It counts as in vivo. As to conditions: for in vivo inhibition of the TNF-α/NF-κB pathway: FFD 2 or 10 mg/kg, TFD 10 or 50 mg/kg orally for 7 days; for TNF-tg:NF-κB activated luciferase in vivo: third round screen, treatment for 7 days. The source says:
In vitro and in vivo screen of FDA-approved drug library. NF-κB-bla THP-1 cell line in which NF-κB beta-lactamase reporter gene was stably integrated, RAW 264.7 macrophages in which NF-κB luciferase reporter gene was transiently transfected, and TNF-tg:NF-κB-Luc double mutant reporter mice were employed to screen the drug library.
Screening and confirming the drugs' anti-TNF activity in vivo. TNF-tg mice and NF-κB luc mice were purchased from Jackson Laboratory and housed in Skirball Animal Facility of New York University Langone Medical Center. All animal experiments have been approved by Institutional Animal Care and Use Committee (IACUC) of New York University School of Medicine. We generated the TNF-tg/NF-κB-Luc mice by mating TNF-tg mice with NF-κB-Luc mice. After genotypes were confirmed by genotyping and bioluminescence via IVIS, the TNF-tg/NF-κB-Luc mice were orally treated daily with one of the 8 drugs selected in screen two for 7 days. The luciferase activity was detected by IVIS 15 minutes after the injection of D-Luciferin (LUCK-1G, Gold biotechnology).

A further experiment deals with TNF-α. As to the kind of experiment: TNF-α induced cytokine expression and release in RAW264.7 cells (incl. H1R1 siRNA and cPLA2 knockout). It counts as cell-based. The note with it: FFD 10 μM; for effect of suppression of H1R1 on the inhibition of TNF-induced cytokine release: RAW264.7 cells with H1R1 siRNAs. How it is done:
qRT-PCR. Total RNA was extracted by RNeasy plus mini kit (74106, QIAGEN) and cDNA was synthesized using SuperScript® Reverse Transcriptase (M314C, promega Corporation). SYBR® Green PCR Master Mix (4309155, Applied Biosystems) was used to perform quantitative real-time PCR (qRT-PCR) and the reaction was performed on a StepOnePlus™ real-time PCR Systems (Applied Biosystems). The mRNA expression level of target genes was calculated by ΔΔCT and fold changes of mRNA levels were normalized to GAPDH.
Knock down of H1R1 by siRNA. BMDMs were transfected with siH1R1, or scrambled control siRNA (scRNAi) using lipofectamine 2000 (11668-019, Invitrogen) according to manufacturer's specifications. After 24 hours, supernatants and lysate were collected to detect cytokine secretion and protein expression, respectively.
Knock out of cPAL2 by CRISPR-Cas9. Knockout cells were generated in accordance with a previously published protocol. gRNA was inserted into the lentiCRISPR v2 vector. Packaging the inserted vector into lentivirus was completed by co-transfecting the lentiCRISPR v2, VSVG and ΔR6.7 in 293T cells. After packaging, we transfected the virus into RAW264.7 cells over 8 hours. Puromycin (2 μg/ml) was used to select the stably transfected RAW264.7 cells

Experiment [1] has as its system osteoclastogenesis in BMDMs. As to the kind of experiment: Osteoclastogenesis in BMDMs (TRAP staining). It counts as cell-based, mice. As to conditions: RANKL 100 ng/mL and TNF-α 10 ng/mL; FFD 10 μM, TFD 1 μM; 4 days. As to the method:
Osteoclastogenesis. […] The cells were fixed with formalin and stained for tartrate-resistant acid phosphatase (TRAP) with a TRAP solution containing 100 mM sodium acetate buffer (pH 5.0), 50 mM sodium tartrate, 0.1 mg/ml sodium naphtol AS-MX phosphate, 0.6 mg/ml Fast Violet LB, and 0.1% Triton X-100. TRAP-positive cells appeared dark red and TRAP-positive multinucleated cells containing more than three nuclei (TRAP-MNCs) were visualized using light microscopy.

The target of a further experiment is T1, cPLA2 (Homo sapiens, UniProt P47712).
T1 construct: expressed in transfected cells; host or cells: RAW264.7
As to the kind of experiment: cPLA2 activity assay in cPLA2-transfected RAW264.7 cells. It counts as cell-based. As to conditions: TNF-α 10 ng/ml; TFD 0.1 or 1 μM, FFD 1 or 10 μM overnight. As to the method: cPLA2 activity assay. RAW264.7 cells were transfected with an expression plasmid encoding cPLA2. 24 hours later, the transfected cells were treated with TNF-α (10 ng/ml) and ATK (1 μM), or TFD (0.1 μM or 1 μM), or FFD (1 μM or 10 μM) overnight. Then the cells were collected and lysed. Cell lysate was used for measurement of cPLA2 activity using a commercial ELISA kit (765021, Cayman Chemical). Briefly, protein concentration of the cell lysate was measured by bicinchoninic acid assay and equal amounts of protein from each lysate sample were incubated with cPLA2 substrate (Arachidonoyl Thio-PC) at room temperature. One hour later, DTNB/EGTA was added to stop the enzyme catalysis, and then the absorbance was read at 414 nm using a plate reader (SpectraMax i3x, 5025027A, Molecular Devices).

The test system of the next experiment is M1 and M2 macrophages. As to the kind of experiment: Macrophage polarization in vitro (BMDMs) and in vivo (spleen of TNF-α Tg mice). The note with it: in vitro BMDMs and spleen of treated TNF-α Tg mice. It counts as cell-based. As to the method: Macrophage polarization. […] INFγ (25 ng/mL) and LPS (250 ng/mL) were added to BMDMs to induce M1 polarization while IL-4(20 ng/mL) was used to induce M2 polarization, with or without adding FFD (1 or 10 μM) or TFD (0.1 or 1μM), and cells were cultured for 24 hours. mRNA were extracted by RNA Mini kit (74106, QIAGEN).
Frozen splenic tissue specimens from TNFα Tg mice treated with or without TFD or FFD were stained and analyzed dual immunofluorescence. All sections were permeabilized with 0.1% NP40 in PBS, and then blocked in 5% donkey serum for 30 min at RT, followed by incubated with anti-IFNg (Th1), anti-IL-4 (Th2), anti-IL17 (Th17) and anti-foxp3 (Treg) diluted in 5% donkey serum at 4° C. overnight. On the second day, after washed 3 times in PBS, the sections were incubated with Cy2-conjugated donkey anti-rat IgG for 30 min at RT. After wash, the sections were furthered stained with FITC conjugated anti-CD4 for I hour at RT. To determine the macrophage polarization, sections were double stained with anti-CD68 and iNOS (M1) or CD206 (M2). DAPI were used to stain the nuclei. The fluorescence intensity of cells was quantified by Image J software.

Another experiment has as its system DBA/1J mice. Nature of the experiment: Collagen induced arthritis model in DBA/1J mice. As to conditions: for loss of cartilage (Safranin O staining of ankle) / serum levels of IL-1β and IL-6 / arthritis clinical scores and incidence / onset of disease: prevention; for arthritis clinical scores and incidence / onset of disease: oral daily from 18 days after immunization, FFD 10 mg/kg, TFD 50 mg/kg; for disease scores: therapeutic, treatment initiated at clinical score of ˜5 points, FFD 0.4, 2, 10 mg/kg, TFD 2, 10, 50 mg/kg oral, 24 days.

T1 sequence (P47712 whole entry): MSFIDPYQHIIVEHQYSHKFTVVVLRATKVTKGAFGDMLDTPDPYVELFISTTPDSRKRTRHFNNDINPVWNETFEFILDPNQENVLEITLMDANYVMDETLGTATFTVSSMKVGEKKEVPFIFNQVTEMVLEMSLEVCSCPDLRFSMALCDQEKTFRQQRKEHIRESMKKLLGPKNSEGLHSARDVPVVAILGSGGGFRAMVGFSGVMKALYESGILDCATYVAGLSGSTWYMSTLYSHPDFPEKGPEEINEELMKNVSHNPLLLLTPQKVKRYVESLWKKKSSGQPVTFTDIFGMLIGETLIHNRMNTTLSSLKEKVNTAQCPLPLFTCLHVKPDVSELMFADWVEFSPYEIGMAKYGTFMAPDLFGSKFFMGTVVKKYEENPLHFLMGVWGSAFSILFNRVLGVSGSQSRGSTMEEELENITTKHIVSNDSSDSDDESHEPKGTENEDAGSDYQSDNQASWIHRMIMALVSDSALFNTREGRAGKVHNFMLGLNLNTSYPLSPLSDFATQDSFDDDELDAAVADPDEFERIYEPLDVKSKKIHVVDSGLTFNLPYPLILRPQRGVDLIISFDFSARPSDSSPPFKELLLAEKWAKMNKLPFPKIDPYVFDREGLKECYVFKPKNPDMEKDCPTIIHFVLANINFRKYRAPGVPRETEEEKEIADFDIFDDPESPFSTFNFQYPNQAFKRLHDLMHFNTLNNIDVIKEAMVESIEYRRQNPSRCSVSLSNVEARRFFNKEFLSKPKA

In the case of `CC(C)(C(=O)O)c1ccc(C(O)CCCN2CCC(C(O)(c3ccccc3)c3ccccc3)CC2)cc1` (stereo not shown) [fexofenadine], in the experiment on TNF-α/NF-κB pathway, the “in vivo inhibition of the TNF-α/NF-κB pathway” value is “dose-dependent inhibition” and the “TNF-tg:NF-κB activated luciferase in vivo” value is on record as “effectively inhibit”. The “effect of suppression of H1R1 on the inhibition of TNF-induced cytokine release” value with TNF-α is on record as “did not affect”. Moreover, in the experiment with TNF-α (cPLA2 KO RAW264.7 cells), the “inhibition of TNF-α activity (IL-1β, IL-6 release) in cPLA2 knockout cells” value was “entirely or almost entirely lost”. In experiment [1], the TNF-α-mediated osteoclastogenesis entry is recorded as “markedly inhibited”. Moreover, on cPLA2, the “TNF-α induced cPLA2 activity” value was “completely abolished”. Further, in the experiment with M1 and M2 macrophages, the “anti-inflammatory M2 macrophages” value is recorded as “markedly increased” and the “inflammatory M1 macrophages” value is on record as “significantly inhibited”. For the same compound, in the experiment on DBA/1J mice, the “loss of cartilage (Safranin O staining of ankle)” value was “prevented the loss of cartilage”; the “serum levels of IL-1β and IL-6” value is on record as “significantly reduced”; the “arthritis clinical scores and incidence” value is recorded as “significantly decrease”; the onset of disease entry is listed as “delay the onset”. Also, the disease scores entry with DBA/1J mice is “dose-dependently ameliorated”.

As for `CC(C)(C)c1ccc(C(O)CCCN2CCC(C(O)(c3ccccc3)c3ccccc3)CC2)cc1` (stereo not shown) [terfenadine], in the experiment with TNF-α/NF-κB pathway, the “in vivo inhibition of the TNF-α/NF-κB pathway” value is “dose-dependent inhibition” and the “TNF-tg:NF-κB activated luciferase in vivo” value is “effectively inhibit”. Also, in the experiment with TNF-α, the “effect of suppression of H1R1 on the inhibition of TNF-induced cytokine release” value is reported as “did not affect”. Further, the TNF-α-mediated osteoclastogenesis result in experiment [1] was “markedly inhibited”. In addition, the “TNF-α induced cPLA2 activity” value on cPLA2 was “completely abolished”. Besides, in the experiment with M1 and M2 macrophages, the “anti-inflammatory M2 macrophages” value is “markedly increased” and the “inflammatory M1 macrophages” value is listed as “significantly inhibited”. In the experiment on DBA/1J mice, the “loss of cartilage (Safranin O staining of ankle)” value is recorded as “prevented the loss of cartilage”; the “serum levels of IL-1β and IL-6” value was “significantly reduced”; the “arthritis clinical scores and incidence” value was “significantly decrease”; the onset of disease entry is reported as “delay the onset”. The disease scores result in the experiment on DBA/1J mice was “dose-dependently ameliorated”.
